Measurements from PubChem BioAssay AID248 (DTP/NCI, 2004).
Toxic doses and inconclusive results are not listed. Cut-off read from the data, not from the text of the source: active = T/C of 150% or more; inactive = T/C below 125%. Peptide text beside a SMILES is read from it. * marks the point of attachment. Cbz = O=C(OCc1ccccc1)*

Test system: L1210 leukemia ip in BDF1 mice, survival T/C
Experiment: NCI In Vivo Anticancer Drug Screen. Data for tumor model L1210 Leukemia (intraperitoneal) in B6D2F1 (BDF1) mice
Conditions: endpoint: mean survival time, higher = longer survival
Outline: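 Mice bearing the transplanted tumor received compound or vehicle. Survival of the treated group was divided by that of the vehicle-treated control group to give the ratio.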

[1] = dose: 12.5 mg/kg/injection, schedule: Q01DX009 (ip), vehicle: Klucel (hydroxypropylcellulose) (HPC)
[2] = dose: 100.0 mg/kg/injection, schedule: Q01DX009 (ip), vehicle: Klucel (hydroxypropylcellulose) (HPC)
[3] = dose: 200.0 mg/kg/injection, schedule: Q01DX009 (ip), vehicle: Klucel (hydroxypropylcellulose) (HPC)
[4] = dose: 100.0 mg/kg/injection, schedule: Q01DX001 (ip), vehicle: carboxymethylcellulose (CMC)
[5] = dose: 200.0 mg/kg/injection, schedule: Q01DX001 (ip), vehicle: carboxymethylcellulose (CMC)
[6] = dose: 400.0 mg/kg/injection, schedule: Q01DX001 (ip), vehicle: carboxymethylcellulose (CMC)
[7] = dose: 100.0 mg/kg/injection, schedule: Q01DX001 (ip), vehicle: saline
[8] = dose: 200.0 mg/kg/injection, schedule: Q01DX001 (ip), vehicle: saline
[9] = dose: 400.0 mg/kg/injection, schedule: Q01DX001 (ip), vehicle: saline
[10] = dose: 100.0 mg/kg/injection, schedule: Q04DX003 (ip), vehicle: Klucel (hydroxypropylcellulose) (HPC)
[11] = dose: 200.0 mg/kg/injection, schedule: Q04DX003 (ip), vehicle: Klucel (hydroxypropylcellulose) (HPC)
[12] = dose: 400.0 mg/kg/injection, schedule: Q01DX009 (ip), vehicle: Klucel (hydroxypropylcellulose) (HPC)
[13] = dose: 400.0 mg/kg/injection, schedule: Q04DX003 (ip), vehicle: Klucel (hydroxypropylcellulose) (HPC)
[14] = dose: 100.0 mg/kg/injection, schedule: Q01DX009 (ip), vehicle: saline
[15] = dose: 200.0 mg/kg/injection, schedule: Q01DX009 (ip), vehicle: saline
[16] = dose: 400.0 mg/kg/injection, schedule: Q01DX009 (ip), vehicle: saline
[17] = dose: 100.0 mg/kg/injection, schedule: Q04DX003 (ip), vehicle: saline
[18] = dose: 200.0 mg/kg/injection, schedule: Q04DX003 (ip), vehicle: saline
[19] = dose: 400.0 mg/kg/injection, schedule: Q04DX003 (ip), vehicle: saline
[20] = dose: 50.0 mg/kg/injection, schedule: Q01DX009 (ip), vehicle: saline with Tween-80
[21] = dose: 100.0 mg/kg/injection, schedule: Q01DX001 (ip), vehicle: Klucel (hydroxypropylcellulose) (HPC)
[22] = dose: 100.0 mg/kg/injection, schedule: Q01DX009 (ip), vehicle: saline with Tween-80
[23] = dose: 200.0 mg/kg/injection, schedule: Q01DX009 (ip), vehicle: saline with Tween-80

Measured: T/C

CCCCCCCCCCC(O)CN1CCN(c2ccc(C)cc2)CC1 (configuration not stated)
inactive: [1] 90 % of control | dose: 25.0 mg/kg/injection, schedule: Q01DX009 (ip), vehicle: Klucel (hydroxypropylcellulose) (HPC) 90 % of control | dose: 50.0 mg/kg/injection, schedule: Q01DX009 (ip), vehicle: Klucel (hydroxypropylcellulose) (HPC) 89 % of control | [2] 94 % of control | [3] 101 % of control

CC1=CC=CC(C)(C)CC1=O
inactive: dose: 100.0 mg/kg/injection, schedule: Q04DX003 (ip), vehicle: other 102 % of control | dose: 200.0 mg/kg/injection, schedule: Q04DX003 (ip), vehicle: other 91 % of control | dose: 400.0 mg/kg/injection, schedule: Q04DX003 (ip), vehicle: other 95 % of control

COc1ccccc1CN1CCCN(Cc2ccccc2OC)C1c1c(O)ccc2ccccc12
inactive: [4] 91 % of control | [5] 91 % of control | [6] 91 % of control

CCCCCCC1c2ccccc2CC1CCCC (configuration not stated)
inactive: dose: 50.0 mg/kg/injection, schedule: Q01DX001 (ip), vehicle: saline 102 % of control | [7] 104 % of control | [8] 102 % of control | [9] 98 % of control

CCCCCCCCCCCCC1c2ccccc2-c2ccccc21
inactive: [7] 95 % of control | [8] 98 % of control | [9] 107 % of control

O=C(/C=C/c1ccccc1)NC(=S)Nc1ccc(C(=O)O)cc1
inactive: [2] 92 % of control | [10] 101 % of control | [3] 101 % of control | [11] 100 % of control | [12] 94 % of control | [13] 108 % of control

OC1CSC2=[N+]1CCS2 (configuration not stated)
inactive: dose: 75.0 mg/kg/injection, schedule: Q01DX001 (ip), vehicle: saline 98 % of control | dose: 150.0 mg/kg/injection, schedule: Q01DX001 (ip), vehicle: saline 112 % of control | dose: 300.0 mg/kg/injection, schedule: Q01DX001 (ip), vehicle: saline 111 % of control

COc1cc(C=Nc2ccc(C(=O)O)c(O)c2)ccc1N(CCCl)CCCl
inactive: dose: 11.0 mg/kg/injection, schedule: Q01DX001 (ip), vehicle: carboxymethylcellulose (CMC) 118 % of control

OC1CCSc2ccc3ccccc3c21 (configuration not stated)
inactive: [14] 114 % of control | [15] 104 % of control | [16] 104 % of control

NC(=O)N/N=C/C1CCC=CO1 (configuration not stated)
inactive: [2] 94 % of control | [3] 102 % of control | [12] 103 % of control

CCOC(=O)CCC(NC(=O)C(CCC(=O)O)NC(=O)OCc1ccccc1)C(=O)OCC (stereo not drawn) (Cbz-Glu-Glu(OEt)-OEt; configuration not given here)
inactive: [10] 94 % of control | [11] 101 % of control | [13] 96 % of control

N#Cc1cnccn1
inactive: [14] 103 % of control | [17] 93 % of control | [15] 104 % of control | [18] 100 % of control | [16] 104 % of control | [19] 93 % of control

ClC1=C(Cl)C2(Cl)CC1(Cl)C1OC12 (configuration not stated)
inactive: dose: 12.5 mg/kg/injection, schedule: Q01DX009 (ip), vehicle: saline with Tween-80 104 % of control | dose: 25.0 mg/kg/injection, schedule: Q01DX009 (ip), vehicle: saline with Tween-80 104 % of control | [20] 96 % of control

CCN(CC)CCCC(C)Nc1ncnc(N)c1N (configuration not stated)
inactive: dose: 12.5 mg/kg/injection, schedule: Q04DX003 (ip), vehicle: Klucel (hydroxypropylcellulose) (HPC) 93 % of control | dose: 25.0 mg/kg/injection, schedule: Q04DX003 (ip), vehicle: Klucel (hydroxypropylcellulose) (HPC) 91 % of control | dose: 50.0 mg/kg/injection, schedule: Q04DX003 (ip), vehicle: Klucel (hydroxypropylcellulose) (HPC) 102 % of control

COC(=O)C(OC(C)=O)C1OC(n2cnc3c(=S)nc[nH]c32)C(OC(C)=O)C1OC(C)=O (configuration not stated)
inactive: [7] 96 % of control | [8] 102 % of control | [9] 97 % of control

Nc1ccc(CCc2nc(N)[nH]c(=O)c2CCCCc2ccccc2)cc1
inactive: dose: 25.0 mg/kg/injection, schedule: Q01DX001 (ip), vehicle: Klucel (hydroxypropylcellulose) (HPC) 98 % of control | dose: 50.0 mg/kg/injection, schedule: Q01DX001 (ip), vehicle: Klucel (hydroxypropylcellulose) (HPC) 96 % of control | [21] 88 % of control

CC(=O)Nc1ccc2c(c1)[nH]c(=O)c1ccccc12
inactive: [4] 96 % of control | [5] 93 % of control | [6] 96 % of control

C1OCC(C2OCOC3COCOC32)O1 (configuration not stated)
inactive: [10] 98 % of control | [11] 95 % of control | [13] 95 % of control

CC1(C)CC(=O)c2c(cc(OS(C)(=O)=O)cc2OS(C)(=O)=O)O1
inactive: dose: 3.12 mg/kg/injection, schedule: Q01DX009 (ip), vehicle: Klucel (hydroxypropylcellulose) (HPC) 90 % of control | dose: 6.25 mg/kg/injection, schedule: Q01DX009 (ip), vehicle: Klucel (hydroxypropylcellulose) (HPC) 97 % of control | [1] 94 % of control

COc1ccc(-c2nnc(Cl)o2)cc1
inactive: [17] 94 % of control

O=C(O)CN1C(=O)OC(c2ccccc2)C1=O (configuration not stated)
inactive: [2] 101 % of control | [3] 97 % of control | [12] 86 % of control

CC(C=O)C=O
inactive: [21] 91 % of control | dose: 200.0 mg/kg/injection, schedule: Q01DX001 (ip), vehicle: Klucel (hydroxypropylcellulose) (HPC) 88 % of control | dose: 400.0 mg/kg/injection, schedule: Q01DX001 (ip), vehicle: Klucel (hydroxypropylcellulose) (HPC) 89 % of control

CCC(O)Cc1c[nH]c(=O)[nH]c1=O (configuration not stated)
inactive: dose: 50.0 mg/kg/injection, schedule: Q01DX009 (ip), vehicle: saline 93 % of control | [14] 98 % of control | dose: 100.0 mg/kg/injection, schedule: Q04DX003 (ip), vehicle: saline with Tween-80 94 % of control | dose: 200.0 mg/kg/injection, schedule: Q04DX003 (ip), vehicle: saline with Tween-80 94 % of control

CS(=O)CCNC(=O)NS(=O)(=O)c1ccc(Cl)cc1 (configuration not stated)
inactive: [17] 97 % of control | [18] 98 % of control | [19] 108 % of control

COc1ccc(/C=N\NC(=O)c2ccc(Cl)c(Cl)c2)cc1OC
inactive: [20] 117 % of control | [22] 93 % of control | [23] 90 % of control

Cc1ccc(C)c(C2NC(=O)c3ccccc3N2)c1 (configuration not stated)
inactive: [2] 102 % of control | [10] 106 % of control | [3] 106 % of control | [11] 90 % of control | [12] 103 % of control | [13] 93 % of control

Cc1ccccc1NC(=O)Nc1ccccc1F
inactive: [2] 99 % of control | [10] 96 % of control | [3] 99 % of control | [11] 103 % of control | [12] 104 % of control | [13] 110 % of control

C=C(C)/C=C/C1CCCCC1
inactive: [20] 95 % of control | [22] 106 % of control | [23] 95 % of control

O=S(=O)(Nc1ccc(NS(=O)(=O)c2ccccc2)nc1)c1ccccc1
inactive: [2] 96 % of control | [10] 101 % of control | [3] 98 % of control | [11] 97 % of control | [12] 101 % of control | [13] 101 % of control
